According to patent US7217827B2, “Halogen-containing aromatic compound” (Nippon Shokubai Co., Ltd., priority 2001, dated 2007):

Assay: Solubility to dimethylacetoamide at 25° C., solution then left standing for a night
Details: for solubility to dimethylacetoamide: at 25° C.; for precipitation from the dimethylacetoamide solution on standing: solution left standing for a night

Compound | solubility to dimethylacetoamide [wt. %] | precipitation from the dimethylacetoamide solution on standing
O=C1OC(=O)c2c(F)c(Oc3c(Cl)c(Cl)c(Oc4c(F)c(F)c5c(c4F)C(=O)OC5=O)c(Cl)c3Cl)c(F)c(F)c21 [Example 1, 1,4-bis(3,4-dicarboxytrifluorophenoxy)tetrachlorobenzene dianhydride] | 22 | precipitations were not found
Nc1c(F)c(N)c(F)c(Cl)c1F [Example III-1, 5-chloro-2,4,6-trifluoro-m-phenylenediamine] | 68 | precipitations were not found
